The values below come from patent US10227345B2, “Compounds and methods for inhibiting fascin” (Cornell University, priority 2014, dated 2019).

In the assay the target is T1, human fascin 1 (Homo sapiens, UniProt Q16658).
T1 construct: GST (N, cleaved yes); made in house; host or cells: Escherichia coli BL21/DE3 (pGEX4T-fascin 1 plasmid)
The experiment in a line: Fascin inhibition (actin bundling) assay, image-based. It counts as biochemical. The settings on record: in the presence of 50 μm of the compound relative to bundle activity when the compound was not present; read-out: Inhibition (percentage reduction of bundle activity). A digest of the protocol:
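GST-tagged human fascin 1 from E. coli, thrombin-cleaved, was preincubated with compounds for 30 min, then polymerized actin was added; compounds were at 30 μM final. Bundles captured on poly-D-lysine plates were imaged, and background-corrected bundle length per well was computed, with DMSO-only wells as negative controls.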

As a reminder, the inhibition is the change of the read-out against control, counted positive when it falls.

As to `O=C(Nc1nn(Cc2ccc(C(F)(F)F)cc2)c2ccccc12)c1ccc(F)c(F)c1` [Compound 19, 3,4-difluoro-N-(1-(4-(trifluoromethyl)benzyl)-1H-indazol-3-yl)benzamide], the inhibition at 50 µM is under 10%. With `O=C(Nc1nn(Cc2ccc(C(F)(F)F)cc2)c2ccccc12)c1ccccc1Cl` [Compound 5, 2-chloro-N-(1-(4-(trifluoromethyl)benzyl)-1H-indazol-3-yl)benzamide] the figure was 50%. With `O=C(Nc1nn(Cc2ccc(C(F)(F)F)cc2)c2ccccc12)c1sccc1Cl` [Compound 41, 3-chloro-N-(1-(4-(trifluoromethyl)benzyl)-1H-indazol-3-yl)thiophene-2-carboxamide] the figure was under 10%. `Cc1occc1C(=O)Nc1nn(Cc2ccc(C(F)(F)F)cc2)c2c(C(F)(F)F)cccc12` [Compound 114, 2-methyl-N-(7-(trifluoromethyl)-1-(4-(trifluoromethyl)benzyl)-1H-indazol-3-yl)furan-3-carboxamide]: the inhibition at 50 µM is under 10%. In the case of `Cc1ccc(-c2nn(Cc3ccc(C(F)(F)F)cc3)c3ccccc23)o1` [Compound 146, 3-(5-methylfuran-2-yl)-1-(4-(trifluoromethyl)benzyl)-1H-indazole] it was 10%. `O=C(Nc1nn(Cc2ccc(C(F)(F)F)cc2)c2ccccc12)c1ccc(Cl)cc1` [Compound 6, 4-chloro-N-(1-(4-(trifluoromethyl)benzyl)-1H-indazol-3-yl)benzamide]: the inhibition at 50 µM was 10%. With `Cc1ccc(Cn2nc(NC(=O)c3ccoc3C)c3ccccc32)cc1` [Compound 81, 2-methyl-N-(1-(4-methylbenzyl)-1H-indazol-3-yl)furan-3-carboxamide] the figure was under 10%; with `Cc1cccc(C(=O)Nc2nn(Cc3ccc(C(F)(F)F)cc3)c3ccccc23)c1` [Compound 17, 3-methyl-N-(1-(4-(trifluoromethyl)benzyl)-1H-indazol-3-yl)benzamide], under 10%; with `O=C(Nc1n[nH]c2ccccc12)c1ccoc1` [Compound 62, N-(1H-indazol-3-yl)furan-3 carboxamide], under 10%. With `Cc1ccsc1C(=O)Nc1nn(Cc2ccc(C(F)(F)F)cc2)c2ccccc12` [Compound 23, 3-methyl-N-(1-(4-(trifluoromethyl)benzyl)-1H-indazol-3-yl)thiophene-2-carboxamide] the figure was under 10%; with `Cc1ccc2c(NC(=O)c3ccoc3)nn(Cc3ccc(C(F)(F)F)cc3)c2n1` [Compound 132, N-(6-methyl-1-(4-(trifluoromethyl)benzyl)-1H-pyrazolo[3,4-b]pyridin-3-yl)furan-3-carboxamide], under 10%.

On to `Cc1occc1C(=O)Nc1nn(Cc2ccc(C(F)(F)F)cc2)c2cc(C(F)(F)F)ccc12` [Compound 109], for which the inhibition at 50 µM is under 10%. In the case of `Cc1ncsc1C(=O)Nc1nn(Cc2ccc(F)cc2)c2ccccc12` [Compound 75, N-(1-(4-fluorobenzyl)-1H-indazol-3-yl)-4-methylthiazole-5-carboxamide] it was under 10%; in that of `Nc1nn(Cc2ccc(C(F)(F)F)cc2)c2c(C(F)(F)F)cccc12` [Compound 111, 7-(trifluoromethyl)-1-(4-(trifluoromethyl)benzyl)-1H-indazol-3-amine], under 10%. In the case of `Cc1ccccc1C(=O)Nc1nn(Cc2ccc(C(F)(F)F)cc2)c2ccccc12` [Compound 15, 2-methyl-N-(1-(4-(trifluoromethyl)benzyl)-1H-indazol-3-yl)benzamide] it was under 10%; in that of `Cc1occc1C(=O)Nc1nn(Cc2ccc(C(F)(F)F)cc2)c2cccc(Cl)c12` [Compound 119, N-(4-chloro-1-(4-(trifluoromethyl)benzyl)-1H-indazol-3-yl)-2-methylfuran-3-carboxamide], under 10%; in that of `Nc1nn(Cc2ccc(F)cc2)c2ccccc12` [Compound 70, 1-(4-fluorobenzyl)-1H-indazol-3-amine], under 10%.
